Format in all cases: biochemical
Conditions in all cases: Caliper assay at 1 mM ATP

The target of experiment [1] is TYK2 (Homo sapiens (Human), UniProt P29597). The experiment in a line: JAK Caliper Enzyme Assay at 1 mM ATP (TYK2). The method, then: (§1) JAK Caliper Enzyme Assay at 1 mM ATP
(§2) Test article was solubilized in dimethyl sulfoxide (DMSO) to a stock concentration of 30 mM. An 11-point half log dilution series was created in DMSO with a top concentration of 600 μM. […] The compound plates were diluted 1 to 60 resulting in a top final assay compound concentration of 10 μM and a 2% DMSO concentration.
(§3) Test article and assay controls were added to a 384-well plate. Reaction mixtures contained 20 mM HEPES, pH 7.4, 10 mM magnesium chloride, 0.01% bovine serum albumin (BSA), 0.0005% Tween 20, 1 mM ATP and 1 μM peptide substrate. […] Enzyme concentrations and incubation times were optimized for each new enzyme preps and were modified slightly over time to ensure 20%-30% phosphorylation. The assays were stopped with a final concentration of 10 mM EDTA, 0.1% Coating Reagent and 100 mM HEPES, pH=7.4. The assay plates were placed on a Caliper Life Science Lab Chip 3000 (LC3000) instrument, and each well was sampled using appropriate separation conditions to measure the unphosphorylated and phosphorylated peptide.

For experiment [2], the target named is JAK1 (Homo sapiens (Human), UniProt P23458). The experiment in a line: JAK Caliper Enzyme Assay at 1 mM ATP (JAK1). The method, then:
as §1, §2, §3

For experiment [3], the target named is JAK2 (Homo sapiens (Human), UniProt O60674). The experiment in a line: JAK Caliper Enzyme Assay at 1 mM ATP (JAK2). The method, then:
as §1, §2, §3

Experiment [4] addresses JAK3 (Homo sapiens (Human), UniProt P52333). The experiment in a line: JAK Caliper Enzyme Assay at 1 mM ATP (JAK3). The method, then: as §1, §2, §3

Chain of JAK3 (P52333 whole entry, species assumed): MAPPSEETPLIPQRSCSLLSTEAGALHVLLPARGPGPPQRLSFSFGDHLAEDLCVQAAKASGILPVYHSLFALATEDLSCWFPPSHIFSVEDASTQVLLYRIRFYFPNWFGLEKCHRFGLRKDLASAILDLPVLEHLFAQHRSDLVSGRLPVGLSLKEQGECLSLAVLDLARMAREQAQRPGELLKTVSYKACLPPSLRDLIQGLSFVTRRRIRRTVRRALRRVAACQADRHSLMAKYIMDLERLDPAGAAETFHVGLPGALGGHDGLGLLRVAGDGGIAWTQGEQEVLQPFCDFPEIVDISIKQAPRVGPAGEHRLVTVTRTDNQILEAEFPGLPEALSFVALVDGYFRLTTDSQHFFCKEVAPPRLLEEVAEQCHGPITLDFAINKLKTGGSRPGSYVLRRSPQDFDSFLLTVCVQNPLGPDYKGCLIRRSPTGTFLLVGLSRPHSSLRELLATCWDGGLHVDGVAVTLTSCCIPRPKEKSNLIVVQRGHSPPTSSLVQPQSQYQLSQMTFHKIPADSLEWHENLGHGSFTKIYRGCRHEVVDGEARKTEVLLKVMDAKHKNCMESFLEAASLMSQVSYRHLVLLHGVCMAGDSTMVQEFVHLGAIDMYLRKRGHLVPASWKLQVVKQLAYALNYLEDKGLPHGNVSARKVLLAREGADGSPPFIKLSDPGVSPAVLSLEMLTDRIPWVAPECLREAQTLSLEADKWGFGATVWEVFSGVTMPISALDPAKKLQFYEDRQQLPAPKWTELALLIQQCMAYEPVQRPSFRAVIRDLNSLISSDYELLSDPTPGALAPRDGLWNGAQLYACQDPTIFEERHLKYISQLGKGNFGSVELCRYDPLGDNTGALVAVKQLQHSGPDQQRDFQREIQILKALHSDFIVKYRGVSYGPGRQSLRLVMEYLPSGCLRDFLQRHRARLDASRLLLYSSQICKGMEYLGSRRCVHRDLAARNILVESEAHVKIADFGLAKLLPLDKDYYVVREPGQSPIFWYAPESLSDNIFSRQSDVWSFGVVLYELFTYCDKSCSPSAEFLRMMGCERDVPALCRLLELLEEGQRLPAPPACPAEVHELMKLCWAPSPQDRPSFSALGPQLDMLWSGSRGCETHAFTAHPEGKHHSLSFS
Chain of TYK2 (P29597 whole entry, species assumed): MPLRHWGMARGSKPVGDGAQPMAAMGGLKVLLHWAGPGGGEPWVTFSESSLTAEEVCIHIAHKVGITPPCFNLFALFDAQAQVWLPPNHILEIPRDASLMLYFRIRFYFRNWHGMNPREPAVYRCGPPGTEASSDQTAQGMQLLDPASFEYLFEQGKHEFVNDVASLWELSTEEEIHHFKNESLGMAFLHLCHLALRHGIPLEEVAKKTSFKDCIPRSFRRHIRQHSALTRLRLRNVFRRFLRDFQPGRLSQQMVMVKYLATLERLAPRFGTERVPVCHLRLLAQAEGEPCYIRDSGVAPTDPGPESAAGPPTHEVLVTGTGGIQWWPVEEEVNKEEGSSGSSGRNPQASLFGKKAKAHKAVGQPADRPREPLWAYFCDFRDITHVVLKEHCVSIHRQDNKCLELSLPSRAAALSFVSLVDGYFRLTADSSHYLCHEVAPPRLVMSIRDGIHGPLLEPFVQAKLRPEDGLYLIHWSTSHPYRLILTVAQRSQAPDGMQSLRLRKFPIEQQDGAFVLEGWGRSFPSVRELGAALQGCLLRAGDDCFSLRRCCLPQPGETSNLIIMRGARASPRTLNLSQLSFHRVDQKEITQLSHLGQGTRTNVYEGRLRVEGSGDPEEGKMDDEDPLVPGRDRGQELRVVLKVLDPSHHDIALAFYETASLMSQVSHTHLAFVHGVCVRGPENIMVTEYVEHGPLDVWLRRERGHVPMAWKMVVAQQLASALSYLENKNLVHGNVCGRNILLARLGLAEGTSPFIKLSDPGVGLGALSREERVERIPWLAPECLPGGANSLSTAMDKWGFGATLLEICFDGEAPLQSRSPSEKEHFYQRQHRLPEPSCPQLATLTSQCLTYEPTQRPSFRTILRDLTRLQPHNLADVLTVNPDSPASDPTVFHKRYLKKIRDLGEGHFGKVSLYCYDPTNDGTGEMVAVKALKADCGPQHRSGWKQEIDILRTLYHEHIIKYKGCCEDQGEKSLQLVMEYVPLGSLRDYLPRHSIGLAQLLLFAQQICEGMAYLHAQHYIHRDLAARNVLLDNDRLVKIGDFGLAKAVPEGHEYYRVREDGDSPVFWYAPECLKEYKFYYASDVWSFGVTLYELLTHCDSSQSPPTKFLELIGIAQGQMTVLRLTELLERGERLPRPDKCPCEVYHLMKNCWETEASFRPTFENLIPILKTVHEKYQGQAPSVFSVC
Chain of JAK2 (O60674 whole entry, species assumed): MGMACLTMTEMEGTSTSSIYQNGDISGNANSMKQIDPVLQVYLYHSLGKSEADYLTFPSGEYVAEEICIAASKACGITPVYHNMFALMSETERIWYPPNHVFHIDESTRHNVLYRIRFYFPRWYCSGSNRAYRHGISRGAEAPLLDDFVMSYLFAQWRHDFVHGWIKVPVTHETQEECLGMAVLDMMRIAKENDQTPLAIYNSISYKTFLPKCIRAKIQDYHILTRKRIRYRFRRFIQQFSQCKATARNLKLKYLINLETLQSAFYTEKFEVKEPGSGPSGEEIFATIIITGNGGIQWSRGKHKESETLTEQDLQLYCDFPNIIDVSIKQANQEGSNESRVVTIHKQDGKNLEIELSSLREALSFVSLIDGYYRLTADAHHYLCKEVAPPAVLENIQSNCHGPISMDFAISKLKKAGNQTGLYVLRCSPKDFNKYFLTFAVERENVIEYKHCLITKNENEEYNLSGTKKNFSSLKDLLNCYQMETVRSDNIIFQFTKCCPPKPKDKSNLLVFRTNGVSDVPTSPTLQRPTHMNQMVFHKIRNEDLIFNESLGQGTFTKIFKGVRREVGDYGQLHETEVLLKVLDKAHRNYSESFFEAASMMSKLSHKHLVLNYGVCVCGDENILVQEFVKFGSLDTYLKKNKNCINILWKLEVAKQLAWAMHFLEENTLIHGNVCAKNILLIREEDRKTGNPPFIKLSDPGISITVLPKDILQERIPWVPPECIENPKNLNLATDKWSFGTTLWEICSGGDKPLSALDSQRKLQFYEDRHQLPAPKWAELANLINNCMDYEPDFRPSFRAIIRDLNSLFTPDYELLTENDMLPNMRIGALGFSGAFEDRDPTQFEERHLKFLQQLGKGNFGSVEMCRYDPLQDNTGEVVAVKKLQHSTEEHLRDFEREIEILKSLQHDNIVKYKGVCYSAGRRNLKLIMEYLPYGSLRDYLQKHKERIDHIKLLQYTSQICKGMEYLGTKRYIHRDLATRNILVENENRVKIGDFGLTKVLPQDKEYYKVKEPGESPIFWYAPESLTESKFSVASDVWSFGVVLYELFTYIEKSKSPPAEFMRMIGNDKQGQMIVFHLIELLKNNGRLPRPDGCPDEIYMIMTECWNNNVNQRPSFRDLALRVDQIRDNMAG
Chain of JAK1 (P23458 whole entry, species assumed): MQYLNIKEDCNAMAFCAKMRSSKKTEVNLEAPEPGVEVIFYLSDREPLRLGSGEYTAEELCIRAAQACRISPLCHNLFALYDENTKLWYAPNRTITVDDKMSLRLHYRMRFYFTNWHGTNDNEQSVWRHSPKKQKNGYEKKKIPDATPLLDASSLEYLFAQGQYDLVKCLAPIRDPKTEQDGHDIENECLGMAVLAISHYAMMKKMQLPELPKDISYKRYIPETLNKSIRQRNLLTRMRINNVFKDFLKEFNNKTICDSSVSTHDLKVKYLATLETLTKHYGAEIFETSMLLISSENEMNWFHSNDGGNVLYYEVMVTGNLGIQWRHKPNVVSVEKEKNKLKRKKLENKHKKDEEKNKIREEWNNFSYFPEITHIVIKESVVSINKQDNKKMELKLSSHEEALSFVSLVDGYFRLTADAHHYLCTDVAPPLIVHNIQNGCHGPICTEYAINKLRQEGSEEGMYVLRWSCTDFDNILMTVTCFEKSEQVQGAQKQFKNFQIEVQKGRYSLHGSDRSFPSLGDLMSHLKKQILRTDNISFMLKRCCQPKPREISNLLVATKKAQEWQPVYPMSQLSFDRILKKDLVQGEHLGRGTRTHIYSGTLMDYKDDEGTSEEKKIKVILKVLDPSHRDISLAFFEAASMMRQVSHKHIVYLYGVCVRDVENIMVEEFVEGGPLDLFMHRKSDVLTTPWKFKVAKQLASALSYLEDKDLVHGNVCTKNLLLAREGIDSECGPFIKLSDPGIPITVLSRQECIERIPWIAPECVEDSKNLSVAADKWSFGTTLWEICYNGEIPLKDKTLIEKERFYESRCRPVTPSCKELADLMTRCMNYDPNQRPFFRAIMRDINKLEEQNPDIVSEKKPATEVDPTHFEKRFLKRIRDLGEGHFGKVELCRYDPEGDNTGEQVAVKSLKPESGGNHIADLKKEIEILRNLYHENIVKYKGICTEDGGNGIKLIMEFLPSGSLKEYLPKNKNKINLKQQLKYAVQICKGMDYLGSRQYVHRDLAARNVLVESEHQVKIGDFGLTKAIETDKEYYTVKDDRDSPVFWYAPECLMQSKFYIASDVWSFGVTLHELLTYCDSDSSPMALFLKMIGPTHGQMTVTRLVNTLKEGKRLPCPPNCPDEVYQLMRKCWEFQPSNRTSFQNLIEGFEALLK

For orientation: IC50 means the point on the concentration scale where inhibition reaches its midpoint. Read a low IC50 as greater potency. `CNC(=O)c1n[nH]c2cc(-c3cc(F)c(O)cc3CC(F)(F)F)nc(NCc3ccccc3N(C)S(=O)(=O)c3cccc(O)c3)c12` [Example 32, 6-[5-Fluoro-4-hydroxy-2-(2,2,2-trifluoroethyl)phenyl]-4-[(2-{[(3-hydroxyphenyl)sulfonyl](methyl)amino}benzyl)amino]-N-methyl-1H-pyrazolo[4,3-c]pyridine-3-carboxamide]: the 50% inhibitory concentration (IC50) in experiment [1] came to 373 nM; in experiment [2], 60.4 nM; in experiment [3] it was 277 nM; in experiment [4], 839 nM.
Taken in the same sequence, the figures for `CCN(c1ccc(O)cc1CNc1nc(-c2cc(F)c(O)cc2CC(F)(F)F)cc2[nH]nc(C(=O)NC)c12)S(C)(=O)=O` [Example 34, 4-({2-[ethyl(methyl-sulfonyl)amino]-5-hydroxybenzyl}amino)-6-[5-fluoro-4-hydroxy-2-(2,2,2-trifluoroethyl)phenyl]-N-methyl-1H-pyrazolo[4,3-c]pyridine-3-carboxamide] were 24.6 nM, 5.1 nM, 27.8 nM and 98.4 nM.
`CCN(c1ccc(O)cc1CNc1nc(-c2cc(F)c(O)cc2CC(F)(F)F)cc2[nH]nc(C(=O)NC)c12)S(=O)(=O)c1ccccc1` [Example 36, 4-({2-[ethyl(phenyl-sulfonyl)amino]-5-hydroxybenzyl}amino)-6-[5-fluoro-4-hydroxy-2-(2,2,2-trifluoroethyl)phenyl]-N-methyl-1H-pyrazolo[4,3-c]pyridine-3-carboxamide]: the IC50 in experiment [1] is 364 nM; in experiment [2], 75 nM; in experiment [3], 401 nM; in experiment [4], 1230 nM.
On to `CCc1cc(O)c(F)cc1-c1cc2[nH]nc(C(=O)NC)c2c(N[C@H](C)c2ccccc2N(C)S(C)(=O)=O)n1` [Example 38, 6-(2-Ethyl-5-fluoro-4-hydroxyphenyl)-N-methyl-4-{[(1R)-1-{2-[methyl(methylsulfonyl)amino]phenyl}ethyl]amino}-1H-pyrazolo[4,3-c]pyridine-3-carboxamide], for which the IC50 came to 17.8 nM in experiment [1], 4 nM in experiment [2], 25 nM in experiment [3] and 122 nM in experiment [4].
On the same counts, the results for `CCc1cc(O)c(F)cc1-c1cc2[nH]nc(C(=O)NC)c2c(N[C@@H](C)c2ccccc2N(C)S(C)(=O)=O)n1` [Example 39, 6-(2-Ethyl-5-fluoro-4-hydroxyphenyl)-N-methyl-4-{[(1S)-1-{2-[methyl(methylsulfonyl)amino]phenyl}ethyl]amino}-1H-pyrazolo[4,3-c]pyridine-3-carboxamide] are 320 nM, 32.3 nM, 48.2 nM and 278 nM.
On the same counts, the results for `CCc1cc(O)c(F)cc1-c1cc2[nH]nc(C(N)=O)c2c(NCc2ccccc2N(C)S(=O)(=O)c2ccccc2)n1` [Example 40, 6-(2-Ethyl-5-fluoro-4-hydroxyphenyl)-4-({2-[methyl(phenylsulfonyl)amino]benzyl}amino)-1H-pyrazolo[4,3-c]pyridine-3-carboxamide] are 18.1 nM, 4.6 nM, 23.1 nM and 130 nM.
On the same counts, the results for `CCN(c1ccc(O)cc1CNc1nc(-c2cc(F)c(O)cc2CC(F)(F)F)cc2[nH]nc(C(N)=O)c12)S(=O)(=O)c1ccccc1` [Example 43, 4-({2-[ethyl(phenyl-sulfonyl)amino]-5-hydroxybenzyl}amino)-6-[5-fluoro-4-hydroxy-2-(2,2,2-trifluoroethyl)-phenyl]-1H-pyrazolo[4,3-c]pyridine-3-carboxamide] are 439 nM, 55.1 nM, 302 nM and 1070 nM.
Take `CCN(c1nccnc1CNc1nc(-c2cc(F)c(O)cc2CC(F)(F)F)cc2[nH]nc(C(=O)NC)c12)S(C)(=O)=O` [Example 45, 4-[({3-[ethyl(methyl-sulfonyl)-amino]pyrazin-2-yl}methyl)amino]-6-[5-fluoro-4-hydroxy-2-(2,2,2-trifluoroethyl)phenyl]-N-methyl-1H-pyrazolo[4,3-c]pyridine-3-carboxamide]: the IC50 amounted to 148 nM in experiment [1], 4 nM in experiment [2], 18.9 nM in experiment [3] and 68.7 nM in experiment [4].
Taken in the same sequence, the figures for `CN(c1ccccc1CNc1nc(-c2cc(F)c(O)cc2C2CC2)cc2[nH]nc(C(N)=O)c12)S(C)(=O)=O` [Example 47, 6-(2-cyclopropyl-5-fluoro-4-hydroxyphenyl)-4-({2-[methyl(methylsulfonyl)amino]benzyl}amino)-1H-pyrazolo[4,3-c]pyridine-3-carboxamide] were 320 nM, 10.6 nM, 28.4 nM and 54.3 nM.
On the same counts, the results for `CNC(=O)c1n[nH]c2cc(-c3cc(F)c(O)cc3CC(F)(F)F)nc(NCc3nccnc3N(C)S(C)(=O)=O)c12` [Example 51, 6-[5-fluoro-4-hydroxy-2-(2,2,2-trifluoroethyl)phenyl]-N-methyl-4-[({3-[methyl(methylsulfonyl)amino]pyrazin-2-yl}methyl)amino]-1H-pyrazolo[4,3-c]pyridine-3-carboxamide] are 226 nM, 3.5 nM, 20.8 nM and 66.9 nM.
As to `CCN(c1ncccc1CNc1nc(-c2cc(F)c(O)cc2CC(F)(F)F)cc2[nH]nc(C(N)=O)c12)S(C)(=O)=O` [Example 52, 4-[({2-[ethyl(methyl-sulfonyl)-amino]pyridin-3-yl}methyl)amino]-6-[5-fluoro-4-hydroxy-2-(2,2,2-trifluoroethyl)phenyl]-1H-pyrazolo[4,3-c]pyridine-3-carboxamide], the IC50 in experiment [1] came to 109 nM; in experiment [2] it was 2.9 nM; in experiment [3], 15 nM; in experiment [4] it was 46.3 nM.
On the same counts, the results for `CNC(=O)c1n[nH]c2cc(-c3cc(F)c(O)cc3CC(F)(F)F)nc(NCc3ncccc3N(C)S(C)(=O)=O)c12` [Example 55, 6-[5-Fluoro-4-hydroxy-2-(2,2,2-trifluoroethyl)phenyl]-N-methyl-4-[({3-[methyl(methylsulfonyl)amino]pyridin-2-yl}methyl)amino]-1H-pyrazolo[4,3-c]pyridine-3-carboxamide] are 45.9 nM, 2.1 nM, 13.7 nM and 54 nM.
Taken in the same sequence, the figures for `CCc1cc(O)c(F)cc1-c1cc2[nH]nc(C(=O)Nc3ccc(C)nc3)c2c(NCc2ccccc2N(C)S(C)(=O)=O)n1` [Example 56, 6-(2-ethyl-5-fluoro-4-hydroxy-phenyl)-4-({2-[methyl(methylsulfonyl)amino]benzyl}amino)-N-(6-methylpyridin-3-yl)-1H-pyrazolo[4,3-c]pyridine-3-carboxamide] were 19.9 nM, 6.6 nM, 26.1 nM and 135 nM.
Taken in the same sequence, the figures for `CNC(=O)c1n[nH]c2cc(-c3cc(F)c(O)cc3CC(F)(F)F)nc(NCc3ccccc3N(C)S(=O)(=O)c3cn[nH]c3)c12` [Example 58, 6-(5-fluoro-4-hydroxy-2-(2,2,2-trifluoroethyl)phenyl)-N-methyl-4-((2-(N-methyl-1H-pyrazole-4-sulfonamido)benzyl)amino)-1H-pyrazolo[4,3-c]pyridine-3-carboxamide] were 67.5 nM, 10.3 nM, 54.4 nM and 236 nM.
Turning to `CNC(=O)c1n[nH]c2cc(-c3cc(F)c(O)cc3CC(F)(F)F)nc(NCc3ccccc3N(C)S(=O)(=O)CCOC)c12` [Example 60, 6-[5-fluoro-4-hydroxy-2-(2,2,2-trifluoroethyl)phenyl]-4-[(2-{[(2-methoxyethyl)sulfonyl](methyl)amino}benzyl)amino]-N-methyl-1H-pyrazolo[4,3-c]pyridine-3-carboxamide], the IC50 in experiment [1] came to 56.5 nM; in experiment [2] it was 6.6 nM; in experiment [3], 29.2 nM; in experiment [4], 115 nM.
Taken in the same sequence, the figures for `CN(c1ccccc1CNc1nc(-c2cc(F)c(O)cc2CC(F)(F)F)cc2[nH]nc(C(N)=O)c12)S(=O)(=O)c1cccnc1` [Example 61, 6-[5-fluoro-4-hydroxy-2-(2,2,2-trifluoroethyl)phenyl]-4-({2-[methyl(pyridin-3-ylsulfonyl)amino]benzyl}amino)-1H-pyrazolo[4,3-c]pyridine-3-carboxamide] were 52.3 nM, 7.3 nM, 30.2 nM and 110 nM.
Turning to `CN(c1ncccc1CNc1nc(-c2cc(F)c(O)cc2CC(F)(F)F)cc2[nH]nc(C(N)=O)c12)S(C)(=O)=O` [Example 62, 6-[5-fluoro-4-hydroxy-2-(2,2,2-trifluoroethyl)phenyl]-4-[({2-[methyl(methyl-sulfonyl)amino]pyridin-3-yl}methyl)amino]-1H-pyrazolo[4,3-c]pyridine-3-carboxamide], the IC50 in experiment [1] was 278 nM; in experiment [2], 2.9 nM; in experiment [3], 14.4 nM; in experiment [4], 39.5 nM.

The values above are taken from patent US9518052B2, “Pyrazolopyridines and pyrazolopyrimidines” (Pfizer Inc., priority 2014, dated 2016).
